Reference: ChEMBL document CHEMBL6074649, “An insight into recent developments in imidazole based heterocyclic compounds as anticancer agents: Synthesis, SARs, and mechanism of actions” (Eur J Med Chem, 2024)
≈ marks a conversion by molar mass, not a printed value.

Assays:
PC-3 [1] = experiment: Anticancer activity against human PC-3 cells at 100 uM relative to control; type: functional
NCI-H1299 = experiment: Anticancer activity against human NCI-H1299 cells at 100 uM relative to control; type: functional
HCT-116 [2] = experiment: Anticancer activity against human HCT-116 cells at 100 uM relative to control; type: functional
MDA-MB-231 [3] = experiment: Antiproliferative activity against human MDA-MB-231 cells assessed as inhibition of cell growth at 20 uM measured for 48 hrs by MTT assay relative to control; type: functional
HCT-15 [4] = experiment: Antiproliferative activity against human HCT-15 cells assessed as inhibition of cell growth at 20 uM measured for 48 hrs by MTT assay relative to control; type: functional
HT-29 [5] = experiment: Antiproliferative activity against human HT-29 cells assessed as inhibition of cell growth at 20 uM measured for 48 hrs by MTT assay relative to control; type: functional
A549 [6] = experiment: Antiproliferative activity against human A549 cells assessed as inhibition of cell growth at 20 uM measured for 48 hrs by MTT assay relative to control; type: functional
HeLa [7] = experiment: Antiproliferative activity against human HeLa cells assessed as inhibition of cell growth at 20 uM measured for 48 hrs by MTT assay relative to control; type: functional
SiHa = experiment: Antiproliferative activity against human SiHa cells; type: functional, cell-based
[8] = Antiproliferative activity against human BJ cells; type: toxicity, cell-based
A549 [9] = experiment: Antiproliferative activity against human A549 cells; type: functional, cell-based
[10] = Cytotoxicity against mouse L929 cells; type: toxicity, cell-based
B16-F10 = experiment: Cytotoxicity against mouse B16-F10 cells; type: functional, cell-based
MCF7 [11] = experiment: Cytotoxicity against human MCF7 cells; type: functional, cell-based
HeLa [12] = experiment: Cytotoxicity against human HeLa cells; type: functional, cell-based
[13] = Cytotoxicity against human MCF-10A cells; type: toxicity, cell-based
A549 [14] = experiment: Cytotoxicity against human A549 cells; type: functional, cell-based
[15] = Cytotoxicity against mouse EMT6/AR1 cells; type: functional, cell-based
[16] = Anticancer activity against human MCF-10A cells assessed as reduction in cell viability measured for 24 hrs by MTT assay; type: toxicity, cell-based
MDA-MB-231 [17] = experiment: Anticancer activity against human MDA-MB-231 cells assessed as reduction in cell viability measured for 24 hrs by MTT assay; type: functional, cell-based; conditions: MDA-MB-231, 24 h
MCF7 [18] = experiment: Antiproliferative activity against human MCF7 cells; type: functional, cell-based
MG-63 = experiment: Antiproliferative activity against human MG-63 cells; type: functional, cell-based
A549 [19] = experiment: Antiproliferative activity against human A549 cells assessed as reduction in cell growth; type: functional, cell-based
[20] = Antiproliferative activity against HEK293 cells; type: toxicity, cell-based; conditions: human
MDA-MB-231 [21] = experiment: Antiproliferative activity against human MDA-MB-231 cells assessed as reduction in cell viability after 48 hrs by SRB assay; type: functional, cell-based; conditions: MDA-MB-231, 48 h
[22] = Antiproliferative activity against human IGR-39 cells assessed as reduction in cell viability after 48 hrs by SRB assay; type: functional, cell-based; conditions: IGR-39, 48 h
MCF7 [23] = experiment: Anticancer activity against human MCF7 cells assessed as reduction in cell viability at 50 ug/ml measured for 48 hrs by MTT assay relative to control; type: functional; conditions: dose 50 µg/ml
MCF7 [24] = experiment: Anticancer activity against human MCF7 cells assessed as reduction in cell viability at 10 ug/ml measured for 24 hrs by MTT assay relative to control; type: functional; conditions: dose 10 µg/ml
HCT-116 [25] = experiment: Anticancer activity against human HCT-116 cells assessed as reduction in cell viability at 50 ug/ml measured for 48 hrs by MTT assay relative to control; type: functional; conditions: dose 50 µg/ml
MCF7 [26] = experiment: Anticancer activity against human MCF7 cells assessed as reduction in cell viability at 10 ug/ml measured for 48 hrs by MTT assay relative to control; type: functional; conditions: dose 10 µg/ml
HFF [27] = experiment: Anticancer activity against human HFF cells assessed as reduction in cell viability at 10 ug/ml measured for 24 hrs by MTT assay relative to control; type: functional; conditions: dose 10 µg/ml
MCF7 [28] = experiment: Anticancer activity against human MCF7 cells assessed as reduction in cell viability at 50 ug/ml measured for 24 hrs by MTT assay relative to control; type: functional; conditions: dose 50 µg/ml
HCT-116 [29] = experiment: Anticancer activity against human HCT-116 cells assessed as reduction in cell viability at 10 ug/ml measured for 24 hrs by MTT assay relative to control; type: functional; conditions: dose 10 µg/ml
HFF [30] = experiment: Anticancer activity against human HFF cells assessed as reduction in cell viability at 50 ug/ml measured for 48 hrs by MTT assay relative to control; type: functional; conditions: dose 50 µg/ml
HCT-116 [31] = experiment: Anticancer activity against human HCT-116 cells assessed as reduction in cell viability at 10 ug/ml measured for 48 hrs by MTT assay relative to control; type: functional; conditions: dose 10 µg/ml
HCT-116 [32] = experiment: Anticancer activity against human HCT-116 cells assessed as reduction in cell viability at 50 ug/ml measured for 24 hrs by MTT assay relative to control; type: functional; conditions: dose 50 µg/ml
HFF [33] = experiment: Anticancer activity against human HFF cells assessed as reduction in cell viability at 50 ug/ml measured for 24 hrs by MTT assay relative to control; type: functional; conditions: dose 50 µg/ml
HFF [34] = experiment: Anticancer activity against human HFF cells assessed as reduction in cell viability at 10 ug/ml measured for 48 hrs by MTT assay relative to control; type: functional; conditions: dose 10 µg/ml
HCT-15 [35] = experiment: Antiproliferative activity against human HCT-15 cells assessed as inhibition of cell growth at 0.1 uM measured for 48 hrs by MTT assay relative to control; type: functional
PANC-1 = experiment: Antiproliferative activity against human PANC-1 cells by MTT assay; type: functional, cell-based
HT-29 [36] = experiment: Antiproliferative activity against human HT-29 cells assessed as inhibition of cell growth at 0.1 uM measured for 48 hrs by MTT assay relative to control; type: functional; conditions: HT-29, 48 h, values are per cent of control
Caco-2 = experiment: Cytotoxicity against human Caco-2 cells assessed as reduction in cell growth incubated for 24 hrs by MTT assay; type: functional, cell-based; conditions: Caco-2, 24 h
HCT-116 [37] = experiment: Cytotoxicity against human HCT-116 cells assessed as reduction in cell growth incubated for 24 hrs by MTT assay; type: functional, cell-based; conditions: HCT-116, 24 h
HeLa [38] = experiment: Antiproliferative activity against human HeLa cells assessed as inhibition of cell growth at 0.1 uM measured for 48 hrs by MTT assay relative to control; type: functional; conditions: values are per cent of control
HeLa [39] = experiment: Cytotoxicity against human HeLa cells assessed as reduction in cell growth incubated for 24 hrs by MTT assay; type: functional, cell-based
HT-29 [40] = experiment: Antiproliferative activity against human HT-29 cells assessed as reduction in cell growth by MTT assay; type: functional, cell-based
A549 [41] = experiment: Antiproliferative activity against human A549 cells assessed as inhibition of cell growth at 0.1 uM measured for 48 hrs by MTT assay relative to control; type: functional
MDA-MB-231 [42] = experiment: Antiproliferative activity against human MDA-MB-231 cells assessed as inhibition of cell growth at 0.1 uM measured for 48 hrs by MTT assay relative to control; type: functional
HepG2 [43] = experiment: Anticancer activity against human HepG2 cells; type: functional, cell-based
PC-3 [44] = experiment: Anticancer activity against human PC-3 cells; type: functional, cell-based
DU-145 = experiment: Anticancer activity against human DU-145 cells; type: functional, cell-based
HepG2 [45] = experiment: Antiproliferative activity against human HepG2 cells; type: functional, cell-based
HepG2 [46] = experiment: Cytotoxicity against human HepG2 cells assessed as reduction in cell growth incubated for 24 hrs by SRB assay; type: functional, cell-based; conditions: HepG2, 24 h

O=C(CS(=O)(=O)NS(=O)(=O)CC(=O)Nc1nc(-c2ccc(Cl)cc2)c[nH]1)Nc1nc(-c2ccc(Cl)cc2)c[nH]1
inhibition at 100 µM (PC-3 [1]): 32.1% | inhibition at 100 µM (NCI-H1299): 21.4% | inhibition at 100 µM (HCT-116 [2]): 41.4%

CCCCCCCCCCCCn1cnc(C(=O)OCC)c1N
inhibition at 20 µM (MDA-MB-231 [3]): 69% | inhibition at 20 µM (HCT-15 [4]): 52% | inhibition at 20 µM (HT-29 [5]): 82% | inhibition at 20 µM (A549 [6]): 54% | inhibition at 20 µM (HeLa [7]): 85%

CN1CCN(c2ccc(-c3nc(-c4ccc(N5C(=O)c6cccc7c(N8CCN(C)CC8)ccc(c67)C5=O)cc4)[nH]c3-c3ccc(N4CCN(C)CC4)cc3)cc2)CC1
IC50 (SiHa): 5.4 µM | IC50 [8]: 13.3 µM | IC50 (A549 [9]): 6.5 µM

COc1cc(C(=O)c2[nH]c(N)nc2-c2cccs2)cc(OC)c1OC
IC50 [10]: 1.66 µM | IC50 (B16-F10): 0.416 µM | IC50 (MCF7 [11]): 0.121 µM | IC50 (HeLa [12]): 0.036 µM | IC50 [13]: 1.89 µM | IC50 (A549 [14]): 0.112 µM | IC50 [15]: 2.43 µM

CCOC(=O)c1ccccc1-n1c(-c2c(O)[nH]c(=O)[nH]c2=O)cnc1C
IC50 at 24 h [16]: > 100 µM | IC50 (MDA-MB-231 [17]): 53.6 µM

COc1ccc2[nH]c(=O)c(-c3nc(-c4ccccc4)c(-c4ccccc4)[nH]3)cc2c1
IC50 (MCF7 [18]): 50.1 µM | IC50 (MG-63): 62 µM | IC50 (A549 [19]): 39.4 µM | IC50 [20]: 86.5 µM

CCn1c(-c2ccc(F)cc2)cn(-c2cccc(S(N)(=O)=O)c2)c1=O
EC50 (MDA-MB-231 [21]): 20.5 µM | EC50 [22]: 27.8 µM

Nc1nc(-c2ccccc2)cn1/N=C/c1cnc2ccccc2n1
Activity (MCF7 [23]): 83.3% | Activity (MCF7 [24]): 41.1% | Activity (HCT-116 [25]): 66.6% | Activity (MCF7 [26]): 47.3% | Activity (HFF [27]): 7.1% | Activity (MCF7 [28]): 64.7% | Activity (HCT-116 [29]): 46.6% | Activity (HFF [30]): 37.5% | Activity (HCT-116 [31]): 50% | Activity (HCT-116 [32]): 70% | Activity (HFF [33]): 35.7% | Activity (HFF [34]): 33.3%

COc1cccc2c1C(=O)c1c(O)c3c(c(O)c1C2=O)C[C@@](O)(C(=O)CO)C[C@@H]3O[C@H]1C[C@H](N)[C@H](O)[C@H](C)O1 [DOXORUBICIN]
inhibition at 0.1 µM (HCT-15 [35]): 94% | IC50 (PANC-1): 1.4 µM | viability, % of control at 0.1 µM (HT-29 [36]): 93% | IC50 (Caco-2): 5.17 µM | IC50 (HCT-116 [37]): 5.64 µM | viability, % of control at 0.1 µM (HeLa [38]): 90% | IC50 (HeLa [39]): 1.25 µM | IC50 (HT-29 [40]): 1 µM | inhibition at 0.1 µM (A549 [41]): 89% | inhibition at 0.1 µM (MDA-MB-231 [42]): 83% | IC50 (HepG2 [43]): 0.62 µM | IC50 (PC-3 [44]): 2.3 µM | IC50 (DU-145): 4.6 µM | IC50 (HepG2 [45]): 0.86 µM | IC50 (HepG2 [46]): 0.42 mg/L (≈ 0.773 µM)
